Read-outs that look alike come from different tables or passages of the source.
Experiments:
MOLM-13 cells = test: Cell viability assay (CellTiter-Glo) in MOLM-13 cells, alone or with gilteritinib; type: cell-based; conditions: Homo sapiens, MOLM-13, 72 h, MOLM-13 cells, three days, CellTiter-Glo
MV4;11 cells = test: Cell viability assay (CellTiter-Glo) in MV4;11 cells, alone or with gilteritinib; type: cell-based; conditions: Homo sapiens, MV4-11, 72 h, MV4;11 cells, three days, CellTiter-Glo, read-out: MV4
[1] = compound alone (without gilteritinib), read-out: MOLM-13 IC50
[2] = with gilteritinib 20 nM, read-out: MOLM-13 IC50 gilteritinib
[3] = compound alone (without gilteritinib), 11 IC50
[4] = with gilteritinib 10 nM, 11 IC50 gilteritinib

SMILES	IC50 (MOLM-13 cells; [1])	IC50 (MOLM-13 cells; [2])	IC50 (MV4;11 cells; [3])	IC50 (MV4;11 cells; [4])
O=C(Cc1ccc(N2CCC(n3cc(-c4cnc5ccccc5n4)cn3)CC2)cc1)NCc1ccc2c(c1)CN(C1CCC(=O)NC1=O)C2=O (stereo not shown) [GS-122, N-((2-(2,6-dioxopiperidin-3-yl)-1-oxoisoindolin-5-yl)methyl)-2-(4-(4-(4-(quinoxalin-2-yl)-1H-pyrazol-1-yl)piperidin-1-yl)phenyl)acetamide]	< 10 nM	< 10 nM	< 10 nM	< 10 nM
O=C1CCC(N2C(=O)c3ccc(NCCCCCC4(N5CCC(n6cc(-c7cnc8ccccc8n7)cn6)CC5)CC4)cc3C2=O)C(=O)N1 (stereo not shown) [GS-123, 2-(2,6-Dioxopiperidin-3-yl)-5-((5-(1-(4-(4-(quinoxalin-2-yl)-1H-pyrazol-1-yl)piperidin-1-yl)cyclopropyl)pentyl)amino)isoindoline-1,3-dione]	> 1000 nM	< 10 nM	100 to 1000 nM	100 to 1000 nM
O=C1CCC(N2C(=O)c3ccc(NCCCCC4(N5CCC(n6cc(-c7cnc8ccccc8n7)cn6)CC5)CC4)cc3C2=O)C(=O)N1 (stereo not shown) [GS-124, 2-(2,6-Dioxopiperidin-3-yl)-5-((4-(1-(4-(4-(quinoxalin-2-yl)-1H-pyrazol-1-yl)piperidin-1-yl)cyclopropyl)butyl)amino)isoindoline-1,3-dione]	> 1000 nM	10 to 100 nM	> 1000 nM	> 1000 nM
O=C1CCC(N2Cc3c(NC4CCCC(Nc5nccc(N6CCC(n7cc(-c8cnc9ccccc9n8)cn7)CC6)n5)C4)cccc3C2=O)C(=O)N1 (stereo not shown) [GS-125, 3-(1-Oxo-4-((3-((4-(4-(4-(quinoxalin-2-yl)-1H-pyrazol-1-yl)piperidin-1-yl)pyrimidin-2-yl)amino)cyclohexyl)amino)isoindolin-2-yl)piperidine-2,6-dione]	> 1000 nM	> 1000 nM	100 to 1000 nM	100 to 1000 nM
O=C1CCC(N2Cc3cc(NCCCCCC4(N5CCC(n6cc(-c7cnc8ccccc8n7)cn6)CC5)CC4)ccc3C2=O)C(=O)N1 (stereo not shown) [GS-126, 3-(1-Oxo-5-((5-(1-(4-(4-(quinoxalin-2-yl)-1H-pyrazol-1-yl)piperidin-1-yl)cyclopropyl)pentyl)amino)isoindolin-2-yl)piperidine-2,6-dione]	> 1000 nM	> 1000 nM	100 to 1000 nM	> 1000 nM
CC(CCCCCCc1ccc2c(c1)C(=O)N(C1CCC(=O)NC1=O)C2)n1cc(-c2cnc3ccccc3n2)cn1 (stereo not shown) [GS-127, 3-(1-Oxo-6-(7-(4-(quinoxalin-2-yl)-1H-pyrazol-1-yl)octyl)isoindolin-2-yl)piperidine-2,6-dione]	> 1000 nM	100 to 1000 nM	> 1000 nM	100 to 1000 nM
O=C1CCC(N2Cc3ccc(NCCCCCCn4cc(-c5cnc6ccccc6n5)cn4)cc3C2=O)C(=O)N1 (stereo not shown) [GS-128, 3-(1-Oxo-6-((6-(4-(quinoxalin-2-yl)-1H-pyrazol-1-yl)hexyl)amino)isoindolin-2-) piperidine-2,6-dione]	> 1000 nM	> 1000 nM	> 1000 nM	> 1000 nM
O=C1CCC(N2C(=O)c3ccc(NCCCCS(=O)(=O)N4CCC(n5cc(-c6cnc7ccccc7n6)cn5)CC4)cc3C2=O)C(=O)N1 (stereo not shown) [GS-129, 2-(2,6-Dioxopiperidin-3-yl)-5-((4-((4-(4-(quinoxalin-2-yl)-1H-pyrazol-1-yl)piperidin-1-yl)sulfonyl)butyl)amino)isoindoline-1,3-dione]	> 1000 nM	100 to 1000 nM	> 1000 nM	100 to 1000 nM
O=C(CC12CC(N3CCC(n4cc(-c5cnc6ccccc6n5)cn4)CC3)(C1)C2)NCc1ccc2c(c1)CN(C1CCC(=O)NC1=O)C2=O (stereo not shown) [GS-130, N-((2-(2,6-dioxopiperidin-3-yl)-1-oxoisoindolin-5-yl)methyl)-2-(3-(4-(4-(quinoxalin-2-yl)-1H-pyrazol-1-yl)piperidin-1-yl)bicyclo[1.1.1]pentan-1-yl)acetamide]	> 1000 nM	> 1000 nM	> 1000 nM	> 1000 nM
O=C1CCC(N2Cc3ccc(NCCCC4CC(n5cc(-c6cnc7ccccc7n6)cn5)C4)cc3C2=O)C(=O)N1 (stereo not shown) [GS-131, 3-(1-Oxo-6-((3-(3-(4-(quinoxalin-2-yl)-1H-pyrazol-1-yl)cyclobutyl)propyl)amino)isoindolin-2-yl)piperidine-2,6-dione]	> 1000 nM	> 1000 nM	> 1000 nM	> 1000 nM
O=C1CCC(N2C(=O)c3ccc(NCCCNC(=O)N4CCC(n5cc(-c6cnc7ccccc7n6)cn5)CC4)cc3C2=O)C(=O)N1 (stereo not shown) [GS-132, N-(3-((2-(2,6-dioxopiperidin-3-yl)-1,3-dioxoisoindolin-5-yl)amino)propyl)-4-(4-(quinoxalin-2-yl)-1H-pyrazol-1-yl)piperidine-1-carboxamide]	< 10 nM	< 10 nM	< 10 nM	< 10 nM
O=C1CCC(N2Cc3c(NC4CCCN(Cc5cccc(N6CCC(n7cc(-c8cnc9ccccc9n8)cn7)CC6)c5)C4)cccc3C2=O)C(=O)N1 (stereo not shown) [GS-133, 3-(1-Oxo-4-((1-(3-(4-(4-(quinoxalin-2-yl)-1H-pyrazol-1-yl)piperidin-1-yl)benzyl)piperidin-3-yl)amino)isoindolin-2-yl)piperidine-2,6-dione]	> 1000 nM	> 1000 nM	> 1000 nM	> 1000 nM
Cc1nc2ccccc2nc1-c1cnn(CCCCCCCc2ccc3c(c2)C(=O)N(C2CCC(=O)NC2=O)C3)c1 (stereo not shown) [GS-134, 3-(6-(7-(4-(3-Methylquinoxalin-2-yl)-1H-pyrazol-1-yl)heptyl)-1-oxoisoindolin-2-yl)piperidine-2,6-dione]	10 to 100 nM	< 10 nM	10 to 100 nM	10 to 100 nM
O=C1CCC(N2Cc3c(NC4CCCC(Nc5cccc(N6CCC(c7cccc(Cl)c7)CC6)c5)C4)cccc3C2=O)C(=O)N1 (stereo not shown) [GS-135, 3-(4-((3-((3-(4-(3-Chlorophenyl)piperidin-1-yl)phenyl)amino)cyclohexyl)amino)-1-oxoisoindolin-2-yl)piperidine-2,6-dione]	> 1000 nM	> 1000 nM	> 1000 nM	100 to 1000 nM
O=C1CCC(N2C(=O)c3ccc(NCCCCC(=O)N4C5CCC4CC(n4cc(-c6cnc7ccccc7n6)cn4)C5)cc3C2=O)C(=O)N1 (stereo not shown) [GS-136, 2-(2,6-Dioxopiperidin-3-yl)-5-((5-oxo-5-(3-(4-(quinoxalin-2-yl)-1H-pyrazol-1-yl)-8-azabicyclo[3.2.1]octan-8-yl)pentyl)amino)isoindoline-1,3-dione]	> 1000 nM	> 1000 nM	> 1000 nM	> 1000 nM
O=C1CCC(N2Cc3cc(NCCCCC4(N5CCC(n6cc(-c7cnc8ccccc8n7)cn6)CC5)CC4)ccc3C2=O)C(=O)N1 (stereo not shown) [GS-137, 3-(1-Oxo-5-((4-(1-(4-(4-(quinoxalin-2-yl)-1H-pyrazol-1-yl)piperidin-1-yl)cyclopropyl)butyl)amino)isoindolin-2-yl)piperidine-2,6-dione]	> 1000 nM	> 1000 nM	> 1000 nM	> 1000 nM
CC(CCCNc1ccc2c(c1)C(=O)N(C1CCC(=O)NC1=O)C2=O)C(=O)N1CCC(n2cc(-c3cnc4ccccc4n3)cn2)CC1 (stereo not shown) [GS-138, 2-(2,6-Dioxopiperidin-3-yl)-5-((4-methyl-5-oxo-5-(4-(4-(quinoxalin-2-yl)-1H-pyrazol-1-yl)piperidin-1-yl)pentyl)amino)iaoindoline-1,3-dione]	> 1000 nM	> 1000 nM	> 1000 nM	> 1000 nM
CC(C)(CCCNc1ccc2c(c1)C(=O)N(C1CCC(=O)NC1=O)C2=O)C(=O)N1CCC(n2cc(-c3cnc4ccccc4n3)cn2)CC1 (stereo not shown) [GS-139, 5-((4,4-Dimethyl-5-oxo-5-(4-(4-(quinoxalin-2-yl)-1H-pyrazol-1-yl)piperidin-1-yl)pentyl)amino)-2-(2,6-dioxopiperidin-3-yl)isoindoline-1,3-dione]	> 1000 nM	> 1000 nM	100 to 1000 nM	100 to 1000 nM
O=C1CCC(N2Cc3cc(NCCCC4CC(n5cc(-c6cnc7ccccc7n6)cn5)C4)ccc3C2=O)C(=O)N1 (stereo not shown) [GS-140, 3-(1-Oxo-5-((3-(3-(4-(quinoxalin-2-yl)-1H-pyrazol-1-yl)cyclobutyl)propyl)amino)isoindolin-2-yl)piperidine-2,6-dione]	> 1000 nM	> 1000 nM	10 to 100 nM	100 to 1000 nM
O=C1CCC(N2C(=O)c3ccc(NCCCC4(C(=O)N5CCC(n6cc(-c7cnc8ccccc8n7)cn6)CC5)CC4)cc3C2=O)C(=O)N1 (stereo not shown) [GS-141, 2-(2,6-Dioxopiperidin-3-yl)-5-((3-(1-(4-(4-(quinoxalin-2-yl)-1H-pyrazol-1-yl)piperidine-1-carbonyl)cyclopropyl)propyl)amino)isondoline-1,3-dione]	> 1000 nM	> 1000 nM	> 1000 nM	> 1000 nM
O=C1CCC(N2Cc3c(NC4CCCC(CCCCn5cc(-c6cnc7ccccc7n6)cn5)C4)cccc3C2=O)C(=O)N1 (stereo not shown) [GS-142, 3-(1-Oxo-4-((3-(4-(4-(quinoxalin-2-yl)-1H-pyrazol-1-yl)butyl)cyclohexyl)amino)isoindolin-2-yl)piperidine-2,6-dione]	> 1000 nM	> 1000 nM	> 1000 nM	> 1000 nM
C[C@@H]1CC(n2cc(-c3cnc4ccccc4n3)cn2)C[C@H](C)N1C(=O)CCCCNc1ccc2c(c1)C(=O)N(C1CCC(=O)NC1=O)C2=O (stereo partly drawn) [GS-143, 5-((5-((2R,6S)-2,6-dimethyl-4-(4-(quinoxalin-2-yl)-1H-pyrazol-1-yl)piperidin-1-yl)-5-oxopentyl)amino)-2-(2,6-dioxopiperidin-3-yl)isoindoline-1,3-dione]	> 1000 nM	> 1000 nM	> 1000 nM	> 1000 nM

— patent publication US20240050428A1 (Cullgen (Shanghai), Inc., priority 2020, published 2024)
